Source: article PMC10202359, “Nicotinamide N-methyltransferase (NNMT) regulates the glucocorticoid signaling pathway during the early phase of adipogenesis” (Scientific Reports, 2023)

Assays:
PRMT3 = PRMT3 (Homo sapiens, UniProt O60678); assay: Methyltransferase Hot Spot radioisotope assay, PRMT3; assay type: biochemical; details: text and Fig. 4D curve fit; read-out: IC50 for PRMT3
Protocol: CC-410 was screened in biochemical assays for activity against a panel of 11 methyltransferases (MT) by using the radioisotope (3H-AdoMet) based MT Hot Spot Assay. All the assays were performed by Reaction Biology Corporation (RBC, Malven, PA, USA). Briefly CC-410 was incubated with the selected MTs, corresponding substrates, and radiolabeled SAM (S-Adenosyl-L-[methyl-3 H]methionine). […] Reaction mixtures were incubated and spotted onto filter papers, which were then washed to remove unreacted SAM, leaving the bound radiolabeled product. Detection of the radiolabeled, methylated product was performed via a nanoliter-scale radioisotope filter binding platform. […] For each assay, control compounds were included as positive controls for enzyme function and assay reproducibility. […] IC50 was calculated by non-linear least square fitting dose–response curve.

[1] = Lilly Open Innovation Drug Discovery high throughput screening
Text: CC-410 chemical structure was initially submitted to the Open Innovation Drug Discovery program[39] (Lilly Research Laboratories, Eli Lilly and Company, Indianapolis, USA), and it was selected for its novelty and drug-like properties, based on cheminformatic evaluation. Briefly, the submitted molecular structure was firstly processed based on the Lilly Medical Chemistry Rules, which are aimed at identifying and eventually excluding from screening those compounds that may interfere with biological assays. Next, structure-based filters, including MW, cLogP, solubility and toxicity among others were analyzed to select molecules with high druggable features. Additionally, the compound was also filtered based on the number of heavy atoms, number of rings, number of aromatic rings, ring size and other physicochemical properties. Solubility and permeability of the compound were also considered for the screening. For molecules passing the cheminformatic evaluation a substance check and comparison with known drugs (both Lilly and PubChem collections) was performed in order to select for novelty. Once the molecule passed this selection it was physically submitted to be tested with a high throughput screening study, querying the activity of the molecule against a wide variety of possible therapeutic targets.

SMYD2 = biological target: T1, SMYD2 (Homo sapiens, UniProt Q9NRG4); assay: Methyltransferase Hot Spot radioisotope assay, SMYD2; assay type: biochemical
T1 construct: purchased Reaction Biology Corporation
Protocol: (§1) CC-410 was screened in biochemical assays for activity against a panel of 11 methyltransferases (MT) by using the radioisotope (3H-AdoMet) based MT Hot Spot Assay. All the assays were performed by Reaction Biology Corporation (RBC, Malven, PA, USA). Briefly CC-410 was incubated with the selected MTs, corresponding substrates, and radiolabeled SAM (S-Adenosyl-L-[methyl-3 H]methionine). The specific MTs assessed, and the corresponding substrates are as follows: DNMT1- Poly dl-dC, DNMT3a- Lambda DNA, DNMT3b- Lambda DNA, DOT1L- Nucleosomes, EZH2 Complex- Core Histone, METTL21A- HSPA8-[CTD], NRMT1- RCC1, PRMT3- Histone H4, PRMT5/MEP50- Histone H2A, SET1b -Core Histone Complex and SMYD2- Nucleosomes. Reaction mixtures were incubated and spotted onto filter papers, which were then washed to remove unreacted SAM, leaving the bound radiolabeled product. Detection of the radiolabeled, methylated product was performed via a nanoliter-scale radioisotope filter binding platform. […] For each assay, control compounds were included as positive controls for enzyme function and assay reproducibility. […] IC50 was calculated by non-linear least square fitting dose–response curve.

DNMT3b = biological target: T2, DNMT3b (Homo sapiens, UniProt Q9UBC3); assay: Methyltransferase Hot Spot radioisotope assay, DNMT3b; assay type: biochemical; details: 10-dose, threefold dilution; CC-410 from 300 μM, control from 100 μM; substrate Lambda DNA
T2 construct: purchased Reaction Biology Corporation
Protocol: as §1

DNMT1 = DNMT1 (Homo sapiens, UniProt P26358); assay: Methyltransferase Hot Spot radioisotope assay, DNMT1; assay type: biochemical; details: 10-dose, threefold dilution; CC-410 from 300 μM, control from 100 μM; substrate Poly dI-dC
Protocol: as §1

3T3-L1 cells [2] = assay: CellTiter-Blue cell viability assay, 3T3-L1; assay type: cell-based, mouse; details: highest concentration (1–25 uM tested), assessed at terminal differentiation
Protocol: CellTiter-Blue® Cell Viability Assay (Promega) was used following the manufacturer’s instructions. 3T3-L1 cells were seeded at a density of 2 × 10^3 cells per well in 96-well plates and cultured till confluence in standard medium. Two-day post-confluent 3T3-L1 cells were induced with DIM and treated with 1, 5, 10 and 25 µM CC-410 along with an untreated control (0.5% DMSO) in 4 different conditions: every 48 h throughout the differentiation period; once in the first 20 h following DIM stimulation; once 48 h after DIM stimulation; or after the early differentiation phase. In all cases, cell viability was assessed at terminal differentiation. Cell viability percentages were calculated by normalizing the fluorescence recorder (560/590) for the treated samples over untreated controls.

EZH2 Complex = biological target: T3, EZH2 Complex (Homo sapiens, UniProt Q15910); assay: Methyltransferase Hot Spot radioisotope assay, EZH2 Complex; assay type: biochemical; details: 10-dose, threefold dilution; CC-410 from 300 μM, control from 100 μM; substrate Core Histone
T3 construct: purchased Reaction Biology Corporation
Protocol: as §1

3T3-L1 cells [3] = assay: Oil Red-O staining of adipocyte differentiation, 3T3-L1; assay type: cell-based, mouse; details: for reduction of adipogenesis (Oil Red-O quantification) compared to untreated control: treatment throughout the differentiation process (during adipogenesis)
Protocol: 3T3-L1 Mouse Embryonic Fibroblasts were purchased from American Type Culture Collection (ATCC CL-173). The cells were propagated and maintained in Dulbecco’s modified Eagle’s medium (DMEM, Gibco) supplemented with 10% calf serum (FCS) at 37 °C in 5% CO2 atmosphere. Subconfluents cells were expanded and utilized for the subsequent experiments at the passages 3–6. To induce differentiation, 2-day post-confluent 3T3-L1 pre-adipocytes were cultured for 48 h with DIM (DMEM supplemented with 10% fetal bovine serum (FBS), 1.0 µM Dexamethasone (G. Biosciences), […] Insulin (Sigma) and 0.5 mM IBMX (Sigma). Two days after induction the DIM medium was removed and the cells were maintained in DMED supplemented with 10% FBS and […] Insulin, which was replaced every 48 h, until the cells became fully differentiated (8–10 days after induction). C3H10T1/2 cells were purchased from American Type Culture Collection (ATCC, clone 8, CCL-226, were grown and induced to differentiate following the same protocol, with cell cultures < 3 passages. Oil Red-O staining was used as previously described. Briefly, cells were fixed for 30 min with 4% formaldehyde, stained with filtered Oil Red solution (0.2% oil red in 40% 2-propanol) and washed 5 times with distilled water. The accumulation of fat droplets in the cells was visualized and photographed under an inverted microscope (DMi1, Leica). The dye was eluted with 100% 2-propanol and quantified spectroscopically at 510 nm (Synergy HT, Bio-Tek).

DNMT3a = biological target: T4, DNMT3a (Homo sapiens, UniProt Q9Y6K1); assay: Methyltransferase Hot Spot radioisotope assay, DNMT3a; assay type: biochemical; details: 10-dose, threefold dilution; CC-410 from 300 μM, control from 100 μM; substrate Lambda DNA
T4 construct: purchased Reaction Biology Corporation
Protocol: as §1

T3 sequence (Q15910 whole entry): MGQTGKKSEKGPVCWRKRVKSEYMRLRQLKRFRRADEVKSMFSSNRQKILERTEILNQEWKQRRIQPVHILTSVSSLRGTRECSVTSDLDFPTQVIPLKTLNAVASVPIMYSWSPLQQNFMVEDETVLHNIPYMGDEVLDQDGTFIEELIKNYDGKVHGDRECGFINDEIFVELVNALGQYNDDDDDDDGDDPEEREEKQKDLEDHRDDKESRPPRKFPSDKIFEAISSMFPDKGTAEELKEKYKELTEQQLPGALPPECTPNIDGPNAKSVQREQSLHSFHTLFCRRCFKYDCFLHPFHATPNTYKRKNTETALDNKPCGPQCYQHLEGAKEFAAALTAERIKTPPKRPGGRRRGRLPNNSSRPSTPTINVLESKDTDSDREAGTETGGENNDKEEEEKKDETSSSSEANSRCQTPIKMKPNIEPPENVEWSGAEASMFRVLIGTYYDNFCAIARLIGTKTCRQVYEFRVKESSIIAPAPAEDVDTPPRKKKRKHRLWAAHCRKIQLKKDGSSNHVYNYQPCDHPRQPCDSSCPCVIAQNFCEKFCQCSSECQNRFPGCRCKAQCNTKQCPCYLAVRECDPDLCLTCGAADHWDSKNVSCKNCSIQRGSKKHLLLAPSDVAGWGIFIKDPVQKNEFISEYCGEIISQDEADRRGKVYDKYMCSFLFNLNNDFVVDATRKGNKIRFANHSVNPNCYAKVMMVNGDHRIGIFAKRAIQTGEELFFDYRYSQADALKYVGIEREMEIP
T3 sequence (O75530 whole entry partner): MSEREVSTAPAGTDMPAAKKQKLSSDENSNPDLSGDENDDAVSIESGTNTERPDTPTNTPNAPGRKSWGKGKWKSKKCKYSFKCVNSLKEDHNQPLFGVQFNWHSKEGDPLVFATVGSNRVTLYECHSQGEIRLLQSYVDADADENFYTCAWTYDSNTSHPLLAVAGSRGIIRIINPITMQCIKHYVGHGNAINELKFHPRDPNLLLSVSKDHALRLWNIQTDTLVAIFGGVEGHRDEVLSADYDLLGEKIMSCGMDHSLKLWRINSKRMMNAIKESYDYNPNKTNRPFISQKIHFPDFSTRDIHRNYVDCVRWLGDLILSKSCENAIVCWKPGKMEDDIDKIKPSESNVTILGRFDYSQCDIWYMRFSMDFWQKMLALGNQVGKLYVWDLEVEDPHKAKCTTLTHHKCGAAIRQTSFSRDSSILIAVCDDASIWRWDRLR
T3 sequence (Q15022 whole entry partner): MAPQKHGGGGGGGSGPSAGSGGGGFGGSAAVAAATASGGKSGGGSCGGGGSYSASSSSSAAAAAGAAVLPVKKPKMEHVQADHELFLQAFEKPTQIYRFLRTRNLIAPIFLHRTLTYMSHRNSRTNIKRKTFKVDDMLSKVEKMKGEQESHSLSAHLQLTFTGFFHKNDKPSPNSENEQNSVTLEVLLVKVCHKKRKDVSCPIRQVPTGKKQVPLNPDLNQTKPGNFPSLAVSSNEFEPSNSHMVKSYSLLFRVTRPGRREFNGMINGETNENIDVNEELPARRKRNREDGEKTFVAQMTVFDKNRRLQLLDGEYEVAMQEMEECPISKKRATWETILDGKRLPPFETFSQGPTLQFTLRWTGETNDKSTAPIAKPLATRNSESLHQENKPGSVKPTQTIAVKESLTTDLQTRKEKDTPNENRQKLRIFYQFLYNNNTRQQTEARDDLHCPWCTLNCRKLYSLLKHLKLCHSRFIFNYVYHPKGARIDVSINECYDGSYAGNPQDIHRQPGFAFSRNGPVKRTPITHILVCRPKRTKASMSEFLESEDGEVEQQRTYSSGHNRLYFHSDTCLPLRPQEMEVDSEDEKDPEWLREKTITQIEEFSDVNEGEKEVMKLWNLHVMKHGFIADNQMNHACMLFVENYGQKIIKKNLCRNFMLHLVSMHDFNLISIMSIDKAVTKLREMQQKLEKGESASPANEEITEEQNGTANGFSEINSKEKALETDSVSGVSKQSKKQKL
T3 sequence (Q09028 whole entry partner): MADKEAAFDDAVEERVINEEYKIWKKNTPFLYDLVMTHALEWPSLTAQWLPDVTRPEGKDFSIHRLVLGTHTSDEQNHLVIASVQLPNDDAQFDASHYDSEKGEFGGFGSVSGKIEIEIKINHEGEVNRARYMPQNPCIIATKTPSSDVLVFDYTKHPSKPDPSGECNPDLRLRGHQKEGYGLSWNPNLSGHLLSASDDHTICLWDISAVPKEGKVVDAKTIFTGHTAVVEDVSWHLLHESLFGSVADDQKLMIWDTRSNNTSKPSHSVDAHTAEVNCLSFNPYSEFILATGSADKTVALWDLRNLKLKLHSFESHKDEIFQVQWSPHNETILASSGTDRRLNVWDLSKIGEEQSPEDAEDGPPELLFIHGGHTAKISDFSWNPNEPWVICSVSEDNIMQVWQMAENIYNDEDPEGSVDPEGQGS
T3 sequence (Q6ZN18 whole entry partner): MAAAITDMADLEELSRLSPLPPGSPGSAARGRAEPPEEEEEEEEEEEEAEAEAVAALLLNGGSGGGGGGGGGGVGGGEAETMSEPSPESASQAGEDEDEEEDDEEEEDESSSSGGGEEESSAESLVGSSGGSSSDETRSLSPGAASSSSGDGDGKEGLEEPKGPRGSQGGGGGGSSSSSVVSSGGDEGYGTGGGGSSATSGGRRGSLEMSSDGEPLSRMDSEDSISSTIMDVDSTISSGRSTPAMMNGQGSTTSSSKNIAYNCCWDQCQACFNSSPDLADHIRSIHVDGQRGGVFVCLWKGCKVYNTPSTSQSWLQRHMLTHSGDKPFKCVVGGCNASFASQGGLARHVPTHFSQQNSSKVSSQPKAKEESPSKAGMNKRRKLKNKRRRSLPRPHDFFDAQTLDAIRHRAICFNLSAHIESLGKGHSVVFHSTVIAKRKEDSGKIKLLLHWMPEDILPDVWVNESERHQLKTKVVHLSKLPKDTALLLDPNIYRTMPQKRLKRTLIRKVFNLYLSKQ
Chain of DNMT1 (P26358 whole entry, species assumed): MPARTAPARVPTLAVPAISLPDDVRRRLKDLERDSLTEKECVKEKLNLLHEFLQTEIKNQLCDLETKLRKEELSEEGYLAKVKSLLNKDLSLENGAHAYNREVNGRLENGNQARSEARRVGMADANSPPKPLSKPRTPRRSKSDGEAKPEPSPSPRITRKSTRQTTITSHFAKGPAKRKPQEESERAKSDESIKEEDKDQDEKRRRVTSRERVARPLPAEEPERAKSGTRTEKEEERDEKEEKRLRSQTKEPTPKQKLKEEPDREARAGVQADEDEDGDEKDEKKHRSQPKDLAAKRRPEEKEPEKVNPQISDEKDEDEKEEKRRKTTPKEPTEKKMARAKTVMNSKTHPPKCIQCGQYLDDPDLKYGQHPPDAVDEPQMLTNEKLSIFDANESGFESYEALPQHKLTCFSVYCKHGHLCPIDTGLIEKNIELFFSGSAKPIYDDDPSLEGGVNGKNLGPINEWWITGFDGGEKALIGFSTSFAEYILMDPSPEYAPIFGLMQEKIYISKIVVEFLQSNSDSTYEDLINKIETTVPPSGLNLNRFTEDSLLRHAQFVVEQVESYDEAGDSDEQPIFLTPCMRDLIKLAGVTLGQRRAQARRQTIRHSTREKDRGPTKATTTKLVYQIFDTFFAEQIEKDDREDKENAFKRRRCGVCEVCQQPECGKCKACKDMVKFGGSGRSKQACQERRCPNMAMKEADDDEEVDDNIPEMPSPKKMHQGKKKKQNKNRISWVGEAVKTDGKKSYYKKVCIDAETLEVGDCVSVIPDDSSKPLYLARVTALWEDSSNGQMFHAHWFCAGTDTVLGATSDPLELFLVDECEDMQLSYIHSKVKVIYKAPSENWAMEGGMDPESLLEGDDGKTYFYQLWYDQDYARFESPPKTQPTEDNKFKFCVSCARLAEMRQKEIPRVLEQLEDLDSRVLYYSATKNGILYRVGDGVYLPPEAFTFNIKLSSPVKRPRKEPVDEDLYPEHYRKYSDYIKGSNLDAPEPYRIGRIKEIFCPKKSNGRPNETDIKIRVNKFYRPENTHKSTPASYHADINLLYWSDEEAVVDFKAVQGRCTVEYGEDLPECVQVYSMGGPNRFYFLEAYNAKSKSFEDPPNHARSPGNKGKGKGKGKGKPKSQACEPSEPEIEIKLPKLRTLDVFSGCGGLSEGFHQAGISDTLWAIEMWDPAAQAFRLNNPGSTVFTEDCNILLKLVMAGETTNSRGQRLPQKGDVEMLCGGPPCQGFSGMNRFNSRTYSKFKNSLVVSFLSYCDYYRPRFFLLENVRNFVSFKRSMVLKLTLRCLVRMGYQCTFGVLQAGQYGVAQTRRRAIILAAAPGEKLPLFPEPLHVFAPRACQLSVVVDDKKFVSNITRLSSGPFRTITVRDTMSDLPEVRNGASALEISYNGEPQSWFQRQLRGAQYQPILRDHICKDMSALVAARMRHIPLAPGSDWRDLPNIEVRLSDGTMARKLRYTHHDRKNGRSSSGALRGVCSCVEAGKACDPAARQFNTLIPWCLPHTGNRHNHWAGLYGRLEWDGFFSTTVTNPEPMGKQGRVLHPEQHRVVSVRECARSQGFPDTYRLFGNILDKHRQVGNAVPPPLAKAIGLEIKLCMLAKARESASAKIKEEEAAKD
T1 sequence (Q9NRG4 whole entry, species assumed): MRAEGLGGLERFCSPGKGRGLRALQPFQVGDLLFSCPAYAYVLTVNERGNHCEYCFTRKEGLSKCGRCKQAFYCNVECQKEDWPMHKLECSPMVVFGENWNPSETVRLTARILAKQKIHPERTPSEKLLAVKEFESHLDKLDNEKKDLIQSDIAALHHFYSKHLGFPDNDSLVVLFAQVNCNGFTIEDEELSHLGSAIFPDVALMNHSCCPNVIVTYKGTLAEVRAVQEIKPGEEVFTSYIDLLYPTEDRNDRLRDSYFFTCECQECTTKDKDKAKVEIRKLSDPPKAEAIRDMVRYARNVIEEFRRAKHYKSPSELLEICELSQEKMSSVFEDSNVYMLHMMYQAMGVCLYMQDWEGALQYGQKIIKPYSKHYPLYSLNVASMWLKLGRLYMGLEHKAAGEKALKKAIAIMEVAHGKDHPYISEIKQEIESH

In the case of `COC(=O)CCC(C)C1CCC2C3C(N)CC4CC(OC(C)=O)CCC4(C)[C@H]3CC(N)C12C` (stereo in doubt) [CC-410, Methyl-(4S)-4-((3S,5S,7S,8S,10R,12R,13S,14R,17S)-3-acetoxy-7,12-diamino-10,13-dimethylhexadecahydro-1H-cyclopenta[a]phenanthren-17-yl) pentanoate], the IC50 (PRMT3) is reported as 104 µM, the “activity against a wide variety of possible therapeutic targets” value [1] is reported as “exclusive inhibitory activity against human NNMT” and the IC50 (SMYD2) is reported as 34.3 µM. The “IC50* (M) DNMT3b” value (DNMT3b) was “no inhibition or compound activity that could not be fitted to an IC50 curve”, the “IC50* (M) DNMT1” value (DNMT1) was “no inhibition or compound activity that could not be fitted to an IC50 curve” and the cell viability (3T3-L1 cells [2]) was “only a slight reduction in cell viability”. The “IC50* (M) EZH2 Complex” value (EZH2 Complex) was “no inhibition or compound activity that could not be fitted to an IC50 curve”, the “reduction of adipogenesis (Oil Red-O quantification) compared to untreated control” value (3T3-L1 cells [3]; 15 µM) was 60% and the “reduction of adipogenesis (Oil Red-O quantification) compared to untreated control” value (3T3-L1 cells [3]; 25 µM) was 80%. The inhibition of adipogenesis (3T3-L1 cells [3]; administered in the first 20 h after hormonal induction, highest concentration tested) was 50%, the effect on adipogenesis (3T3-L1 cells [3]; continuously dispensed after the early phase of adipogenesis) was “no anti-adipogenic effect was evident” and the effect on adipogenesis (3T3-L1 cells [3]; treatment during the 48 h of DEX stimulation, followed by IBMX 48 h) was “strongly impaired adipogenesis”. The effect on adipogenesis (3T3-L1 cells [3]; treatment during the early phase (from T0 to 48 h)) was “markedly reduced adipogenesis, with levels analogous to continuous treatment” and the “IC50* (M) DNMT3a” value (DNMT3a) was “no inhibition or compound activity that could not be fitted to an IC50 curve”.
